Consider one compound from ChEMBL document CHEMBL1201862, “PubChem BioAssay data set” (2004).

What is called GI50 is the concentration at which growth is held to half of that of the control.

Among the test systems are CCRF-CEM; COLO 205; HCT-15; HOP-62; HOP-92; Hs-578T; IGROV-1; K562; LOX IMVI; M14; MDA-MB-435; MDA-N; NCI-H226; OVCAR-5; OVCAR-8; SK-MEL-2; SK-MEL-5; SK-OV-3; SW-620; UO-31.
Test in all cases: DTP human tumour cell line panel, 48 h

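1) Cells in 96-well plates. 2) Compound, 48 h, 5 concentrations. 3) Linear interpolation between surrounding doses. 4) Unreached endpoint = highest concentration. The concentration for 50% growth inhibition is given as GI50.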 Activity calls are given as the source filed them. No stated cut-off is given here; in the data, active = GI50 up to about 1.1 µM and inactive = higher. Non-standard residues stand in square brackets, D forms with d. Residues, ends and D or L forms follow the SMILES beside them. ξ: configuration not given here. *: point of attachment. NMeF = CN[C@@H](Cc1ccccc1)C(=O)O; NMeN = CN[C@@H](CC(N)=O)C(=O)O; NMeV = CN[C@H](C(=O)O)C(C)C; ξNMeV = CNC(C(=O)O)C(C)C; Boc = CC(C)(C)OC(=O)*; ξNMeA = CNC(C)C(=O)O; ξV = CC(C)C(N)C(=O)O

In the case of `COC(=O)C(C)N(C)C(=O)[C@H](CC(N)=O)N(C)C(=O)[C@@H]1CCCN1C(=O)[C@H](C(C)C)N(C)C(=O)C(C(C)C)N(C)C(=O)[C@H](Cc1ccccc1)N(C)C(=O)C(NC(=O)OC(C)(C)C)C(C)C` (stereo not given in full) (Boc-[ξV][NMeF][ξNMeV][NMeV]P[NMeN][ξNMeA]-OMe), the GI50 in the experiment with CCRF-CEM was 24 µM (inactive); with COLO 205 it was 13.3 µM (inactive); with HCT-15, 22 µM; in the experiment on HOP-62, 11.5 µM (inactive); in the experiment on HOP-92 it was 20.9 µM (inactive); in the experiment with Hs-578T it was 10.8 µM (inactive). Besides, the GI50 in the experiment with IGROV-1 was 22.4 µM (inactive); with K562, 16.9 µM (inactive); in the experiment with LOX IMVI, 9.44 µM (inactive); in the experiment on M14, 15.9 µM (inactive); in the experiment with MDA-MB-435, 23.2 µM (inactive); in the experiment with MDA-N it was 22.6 µM (inactive). Moreover, the GI50 in the experiment with NCI-H226 is 12.1 µM (inactive); in the experiment on OVCAR-5, > 50 µM (inactive); with OVCAR-8 it was 17.5 µM (inactive); with SK-MEL-2 it was 9.1 µM (inactive); in the experiment with SK-MEL-5 it was 17.2 µM (inactive); with SK-OV-3, 46.2 µM (inactive). Besides, the GI50 was 28.1 µM (inactive) with SW-620 and 37.8 µM (inactive) with UO-31.
